Among the data in patent US10888567B2, “Inhibitors of tryptophan dioxygenases (IDO1 and TDO) and their use in therapy” (AUCKLAND UNISERVICES LIMITED, priority 2014, dated 2021) are IC50 values, retold here.

Structures are written as SMILES. Some results are limits rather than exact numbers.

For assay [1], the target named is Recombinant human IDO1 (rhIDO1) (Homo sapiens (Human), UniProt P14902). Put plainly: Enzymatic assay for IDO1 activity. Type of assay: biochemical. The conditions noted are these: rhIDO1 9 nM, 80 μM TRP, 37° C. 30 min. The protocol: Recombinant human IDO1 (rhIDO1) was expressed and purified from cultures of EC538 strain of E. coli transformed with pREP4 and pQE9-IDO plasmid. Reaction mixes were set up in 384-well microplates containing 50 mM phosphate buffer, 10 mM ascorbic, 10 μM methylene blue, 100 μg/mL catalase, 80 μM TRP, 0.01% Tween 20 (v/v) mixed with rhIDO1 (15 μL) at a final concentration of 9 nM in a total volume of 30 μL assay medium. The plates were incubated at 37° C. for 30 min, and the enzymatic reaction was terminated by adding piperidine (200 mM) and heated at 65° C. for 20 min. Fluorescence intensity was read at λex 400 nm and λem 500 nm. Test compounds were dissolved in 100% DMSO and pre-diluted in assay medium prior to adding rhIDO1. IDO1 inhibition (%) was calculated as
[formula] All experiments were carried out in triplicates, and statistical Analyses were conducted in Prism v5 (Graphpad Software, Inc., La Jolla, Calif., USA). Cell-Based Assay for IDO1 Inhibition

Assay [2] deals with Lewis Lung carcinoma cells transfected to express IDO1 (LLTC-hIDO1). Nature of the assay: MTT cell viability in the cellular IDO1 assay. Type of assay: cell-based. The conditions noted are these: same experiment as cellular IDO1 assay. The protocol: The viability of the cells in each well in the same experiment was determined using the 3-(4,5-dimethylthiazolyl-2-yl)-2,5-diphenyltetrazolium bromide (MTT) colourimetric assay. After the removal of the supernatant for determination of IDO1 inhibition, the cells were incubated with MTT (500 μg/mL) until crystal formation was observed. […] DMSO (100 μL/well) was added to dissolve the crystals and then the absorbance in each well was measured at 570 nm. Cell viability in each well was expressed as a percentage of untreated controls. Triplicate cultures were used for all experiments unless stated otherwise.

For assay [3], the target named is human IDO1 (LLTC-hIDO1 cells) (Homo sapiens, UniProt P14902). Nature of the assay: Cell-based assay for IDO1 inhibition (kynurenine in supernatant). Particulars: IDO1-transfected Lewis Lung carcinoma cells, 24 h; read-out: Cellular IC50. The method, then:
Culture supernatant from each well was then transferred into a fresh, flat-bottomed 96-well plate, mixed with trichloroacetic acid (10% final concentration) and incubated for 20 min at 60° C. […] The absorbance of each well was read at 480 nm, and the concentration that inhibited 50% cellular enzyme activity was calculated.

Recombinant human IDO1 (rhIDO1), sequence (P14902 whole entry): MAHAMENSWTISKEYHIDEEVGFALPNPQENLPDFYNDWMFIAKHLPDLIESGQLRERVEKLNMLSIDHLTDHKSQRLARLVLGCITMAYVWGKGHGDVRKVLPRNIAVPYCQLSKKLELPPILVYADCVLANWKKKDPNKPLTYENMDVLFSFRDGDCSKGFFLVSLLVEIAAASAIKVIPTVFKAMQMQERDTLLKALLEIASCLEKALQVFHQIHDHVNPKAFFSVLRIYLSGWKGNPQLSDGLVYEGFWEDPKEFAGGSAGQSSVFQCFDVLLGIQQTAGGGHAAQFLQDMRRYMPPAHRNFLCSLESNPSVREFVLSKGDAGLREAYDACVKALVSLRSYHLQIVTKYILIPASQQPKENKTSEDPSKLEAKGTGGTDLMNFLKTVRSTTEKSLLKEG

Take `Cc1nc2onc(N)c2c(C)c1Br` [Compound 1, 5-Bromo-4,6-dimethylisoxazolo[5,4-b]pyridin-3-amine]: the results for the IC50 in assay [1], in assay [2] and in assay [3] were 1 to 10 µM, greater than 100 µM and less than 1 µM, respectively.
For the compound `Nc1noc2ncccc12` [Compound 2, Isoxazolo[5,4-b]pyridin-3-amine], the IC50 is greater than 100 µM in assay [1], greater than 100 µM in assay [2] and 10 to 100 µM in assay [3].
For the compound `Cc1cc(C)c2c(N)noc2n1` [Compound 4, 4,6-Dimethylisoxazolo[5,4-b]pyridin-3-amine], the IC50 in assay [1] was 10 to 100 µM; in assay [2], greater than 100 µM; in assay [3], 1 to 10 µM.
For `Cc1nc2onc(N)c2c(C)c1C` [Compound 5, 4,5,6-Trimethylisoxazolo[5,4-b]pyridin-3-amine], the IC50 in assay [1] is 10 to 100 µM.
Turning to `Nc1noc2ncc(Br)cc12` [Compound 6, 5-Bromoisoxazolo[5,4-b]pyridin-3-amine], the values for the IC50 in assay [1], in assay [2] and in assay [3] were 10 to 100 µM, greater than 100 µM and less than 1 µM, respectively.
Regarding `Cc1ccc2c(N)noc2n1` [Compound 7, 6-Methylisoxazolo[5,4-b]pyridin-3-amine], in assay [1], the IC50 is greater than 100 µM.
Consider `Nc1noc2ncc(Cl)cc12` [Compound 8, 5-Chloroisoxazolo[5,4-b]pyridin-3-amine], for which the IC50 in assay [1] is 10 to 100 µM; in assay [2], greater than 100 µM; in assay [3], less than 1 µM.
Regarding `Nc1noc2nc3ccccc3cc12` [Compound 9, Isoxazolo[5,4-b]quinolin-3-amine], the concentration for half-maximal inhibition (IC50) was 10 to 100 µM in assay [1], greater than 100 µM in assay [2] and 1 to 10 µM in assay [3].
`Nc1noc2nc3c(cc12)CCCC3` [Compound 10, 5,6,7,8-Tetrahydroisoxazolo[5,4-b]quinolin-3-amine]: the IC50 in assay [1] is greater than 100 µM; in assay [2] it was greater than 100 µM; in assay [3], 1 to 10 µM.
As for `Nc1noc2ncncc12` [Compound 12, Isoxazolo[5,4-d]pyrimidin-3-amine], the IC50 in assay [1] is greater than 100 µM; in assay [2] it was greater than 100 µM; in assay [3] it was 1 to 10 µM.
As to `Nc1noc2nccc(-c3ccccc3)c12` [Compound 13, 4-Phenylisoxazolo[5,4-b]pyridin-3-amine], the IC50 in assay [1], in assay [2] and in assay [3] was greater than 100 µM in each case.
Regarding `Nc1noc2ncc(F)cc12` [Compound 14, 5-Fluoroisoxazolo[5,4-b]pyridin-3-amine], in assay [1], the IC50 is greater than 100 µM.
In the case of `Nc1noc2nc(-c3ccccc3)ccc12` [Compound 15, 6-Phenylisoxazolo[5,4-b]pyridin-3-amine], the IC50 in assay [1] is greater than 100 µM; in assay [2], greater than 100 µM; in assay [3], 1 to 10 µM.
As for `Nc1noc2ncc(I)cc12` [Compound 16, 5-Iodoisoxazolo[5,4-b]pyridin-3-amine], the IC50 in assay [1] was 1 to 10 µM; in assay [2] it was greater than 100 µM; in assay [3], less than 1 µM.
On to `Nc1noc2ccncc12` [Compound 17, Isoxazolo[4,5-c]pyridin-3-amine], for which the IC50 in assay [1] was greater than 100 µM.
Still for that read-out and setting: the value for `CN(C)c1ccc2c(N)noc2n1` [Compound 18, N^6,N^6-Dimethylisoxazolo[5,4-b]pyridine-3,6-diamine] was greater than 100 µM; that for `CN(C)c1ccnc2onc(N)c12` [Compound 19, N^4,N^4-Dimethylisoxazolo[5,4-b]pyridine-3,4-diamine] was greater than 100 µM.
`CNc1noc2nc(C)c(Cl)c(C)c12` [Compound 20, 5-Chloro-N^3,4,6-trimethylisoxazolo[5,4-b]pyridin-3-amine]: the IC50 in assay [1] was greater than 100 µM; in assay [2] it was greater than 100 µM; in assay [3] it was 10 to 100 µM.
With `Nc1noc2ncc(-c3ccccc3O)cc12` [Compound 28, 2-(3-Aminoisoxazolo[5,4-b]pyridin-5-yl)phenol], the IC50 in assay [1] is greater than 100 µM.
Regarding `Nc1noc2ncc(-c3ccc(F)cc3)cc12` [Compound 30, 5-(4-Fluorophenyl)isoxazolo[5,4-b]pyridin-3-amine], the 50% inhibitory concentration (IC50) in assay [1] is greater than 100 µM.
Regarding `Cc1cc(Cl)nc2onc(N)c12` [Compound 42, 6-Chloro-4-methylisoxazolo[5,4-b]pyridin-3-amine], the IC50 in assay [1] was less than 1 µM; in assay [2] it was greater than 100 µM; in assay [3], less than 1 µM.
For the compound `Nc1ccc2c(N)noc2n1` [Compound 43, Isoxazolo[5,4-b]pyridine-3,6-diamine], the IC50 in assay [1] was greater than 100 µM.
As for `Cc1cnc2onc(N)c2c1` [Compound 44, 5-Methylisoxazolo[5,4-b]pyridin-3-amine], the IC50 in assay [1] is greater than 100 µM; in assay [2], greater than 100 µM; in assay [3] it was 10 to 100 µM.
Consider `Cc1cc2c(N)noc2nc1C` [Compound 45, 5,6-Dimethylisoxazolo[5,4-b]pyridin-3-amine], for which the 50% inhibitory concentration (IC50) in assay [1] is greater than 100 µM; in assay [2], greater than 100 µM; in assay [3], 10 to 100 µM.
As to `Cc1cc(C(F)(F)F)c2c(N)noc2n1` [Compound 46, 6-Methyl-4-(trifluoromethyl)isoxazolo[5,4-b]pyridin-3-amine], the results for the IC50 in assay [1], in assay [2] and in assay [3] were greater than 100 µM, greater than 100 µM and 10 to 100 µM, respectively.
Take `Nc1noc2nc(C(F)(F)F)ccc12` [Compound 47, 6-(Trifluoromethyl)isoxazolo[5,4-b]pyridin-3-amine]: the IC50 in assay [1] is less than 1 µM; in assay [2], greater than 100 µM; in assay [3], 1 to 10 µM.
For `CC(C)c1ccc2c(N)noc2n1` [Compound 48, 6-Isopropylisoxazolo[5,4-b]pyridin-3-amine], in that order: greater than 100 µM, greater than 100 µM and 10 to 100 µM.
Take `Nc1noc2ncc([N+](=O)[O-])cc12` [Compound 49, 5-Nitroisoxazolo[5,4-b]pyridin-3-amine]: the IC50 is 1 to 10 µM in assay [1], greater than 100 µM in assay [2] and less than 1 µM in assay [3].
For `CCOC(=O)c1cc2c(N)noc2nc1C(F)(F)F` [Compound 50, Ethyl 3-amino-6-(trifluoromethyl)isoxazolo[5,4-b]pyridine-5-carboxylate], in that order: 10 to 100 µM, greater than 100 µM and 10 to 100 µM.
`COc1ccnc2onc(N)c12` [Compound 51, 4-Methoxyisoxazolo[5,4-b]pyridin-3-amine]: the IC50 in assay [1] is greater than 100 µM.
Consider `Cc1nc2onc(N)c2c(C)c1OC(F)F` [Compound 52, 5-(Difluoromethoxy)-4,6-dimethylisoxazolo[5,4-b]pyridin-3-amine], for which the IC50 was greater than 100 µM in assay [1], greater than 100 µM in assay [2] and 10 to 100 µM in assay [3].
Turning to `CCOC(=O)c1cc2c(N)noc2nc1C` [Compound 53, Ethyl 3-amino-6-methylisoxazolo[5,4-b]pyridine-5-carboxylate], in assay [1], the IC50 was greater than 100 µM.
`CCOC(=O)c1cc2c(N)noc2nc1C(F)F` [Compound 54, Ethyl 3-amino-6-(difluoromethyl)isoxazolo[5,4-b]pyridine-5-carboxylate]: the IC50 in assay [1] is greater than 100 µM; in assay [2], greater than 100 µM; in assay [3], 10 to 100 µM.
Consider `Nc1noc2nc(N3CCOCC3)c(F)cc12` [Compound 55, 5-Fluoro-6-morpholinoisoxazolo[5,4-b]pyridin-3-amine], for which the IC50 in assay [1] was greater than 100 µM.
In the case of `Nc1noc2nc3c(cc12)CCCCC3` [Compound 60, 6,7,8,9-Tetrahydro-5H-cyclohepta[b]isoxazolo[4,5-e]pyridin-3-amine], the IC50 in assay [1] was greater than 100 µM.
With `CC1(C)CCc2nc3onc(N)c3cc2C1` [Compound 61, 6,6-Dimethyl-5,6,7,8-tetrahydroisoxazolo[5,4-b]quinolin-3-amine], in assay [1], the IC50 was greater than 100 µM.
Take `Nc1noc2nc3c(cc12)COCC3` [Compound 62, 7,8-Dihydro-5H-isoxazolo[5,4-b]pyrano[3,4-e]pyridin-3-amine]: the IC50 in assay [1] is greater than 100 µM.
Turning to `Nc1noc2nc(Oc3ccccc3)ccc12` [Compound 83, 6-Phenoxyisoxazolo[5,4-b]pyridin-3-amine], the IC50 in assay [1] was greater than 100 µM.
As for `Nc1noc2nc(Oc3cccc(Cl)c3)ccc12` [Compound 85, 6-(3-Chlorophenoxy)isoxazolo[5,4-b]pyridin-3-amine], in assay [1], the IC50 was greater than 100 µM.
As to `Nc1noc2nc(Oc3ccc(Cl)cc3)ccc12` [Compound 86, 6-(4-Chlorophenoxy)isoxazolo[5,4-b]pyridin-3-amine], in assay [1], the IC50 was greater than 100 µM.
The same measure, in the same setting: the result for `COc1cccc(Oc2ccc3c(N)noc3n2)c1` [Compound 91, 6-(3-Methoxyphenoxy)isoxazolo[5,4-b]pyridin-3-amine] reads greater than 100 µM.
Consider `COc1ccc(Oc2ccc3c(N)noc3n2)cc1` [Compound 92, 6-(4-Methoxyphenoxy)isoxazolo[5,4-b]pyridin-3-amine], for which the IC50 in assay [1] is greater than 100 µM.

Usually IC50 stands for the concentration at which inhibition is half-maximal.
